Active and inactive are the calls of the source.
What was measured:
[1] = nonselective inhibitors of cellular cAMP signaling, dose response, counter-screen for MC4R biased antagonist project, cell-based, TR-FRET cAMP detection (AID 602305); assay type: functional;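 also: U2OS cells stimulated with forskolin near its EC80 as the cAMP inducer; potency is for inhibition of forskolin-stimulated cAMP signaling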
Melanocortin receptor 4 = Melanocortin receptor 4 (Homo sapiens, UniProt P32245); assay: MC4R antagonist potency on cAMP, dose response, cell-based, TR-FRET, biased antagonists (AID 602298); assay type: functional;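 also: antagonist potency against agonist-stimulated cAMP production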
[2] = inhibitors of HIV Env-driven cell fusion, dose response, cherry-pick (AID 652057); assay type: functional, cell-based
Orexin receptor type 2 [3] = biological target: T1, Orexin receptor type 2 (Homo sapiens, UniProt O43614); assay: Counterscreen assay for antagonists of the orexin 1 receptor (OX1R; HCRTR1): Fluorescence-based cell-based dose response assay for antagonists of the orexin 2 receptor (OX2R; HCRTR2), run by assay provider.; assay type: functional
T1 sequence (O43614 whole entry): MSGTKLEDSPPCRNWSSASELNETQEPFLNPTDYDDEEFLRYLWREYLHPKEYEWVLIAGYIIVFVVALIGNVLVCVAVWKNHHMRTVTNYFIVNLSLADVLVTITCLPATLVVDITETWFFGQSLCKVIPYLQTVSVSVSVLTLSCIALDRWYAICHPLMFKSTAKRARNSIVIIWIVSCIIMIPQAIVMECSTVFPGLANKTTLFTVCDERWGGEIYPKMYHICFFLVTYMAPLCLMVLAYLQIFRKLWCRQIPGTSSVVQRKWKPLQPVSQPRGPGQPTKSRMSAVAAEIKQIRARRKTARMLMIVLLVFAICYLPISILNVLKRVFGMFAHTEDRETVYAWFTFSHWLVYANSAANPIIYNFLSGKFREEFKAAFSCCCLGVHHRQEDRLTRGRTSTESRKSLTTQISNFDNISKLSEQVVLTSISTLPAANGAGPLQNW

[4] = inhibitors of clade B AD8 Env fusion, dose response, cell-based, cherry-pick (AID 652062); assay type: functional;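 also: luciferase signal from cell-cell fusion driven by HIV-1 clade B AD8 Env; potency is for inhibitors of fusion seen as a drop in luminescence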
[5] = (§1) Counterscreen for antagonists of the orexin 1 receptor (OX1R; HCRTR1): Fluorescence-based cell-based high throughput dose response assay to identify antagonists of the parental CHO cell line. [Related pubchem assays (depositor defined):AID434989, AID435008, AID463079, AID485270, AID492963, AID492964, AID492965, AID493232, AID504699, AID504701]; assay type: functional
Orexin receptor type 2 [6] = biological target: T1, Orexin receptor type 2; assay: Counterscreen assay for antagonists of the orexin 1 receptor (OX1R; HCRTR1): Homogeneous Time Resolved Fluorescence (HTRF)-based cell-based dose response assay for antagonists of the orexin 2 receptor (OX2R; HCRTR2), run by assay provider.; assay type: functional
[7] = biological target: T2, Orexin/Hypocretin receptor type 1 (Homo sapiens, UniProt O43613); assay: Homogeneous Time Resolved Fluorescence (HTRF)-based cell-based high throughput dose response assay for antagonists of the orexin 1 receptor (OX1R; HCRTR1). [Related pubchem assays (depositor defined):AID434989, AID435008, AID463079, AID485270, AID492963, AID492964, AID492965, AID493232, AID504717, AID504718]; assay type: functional
T2 sequence (O43613 whole entry): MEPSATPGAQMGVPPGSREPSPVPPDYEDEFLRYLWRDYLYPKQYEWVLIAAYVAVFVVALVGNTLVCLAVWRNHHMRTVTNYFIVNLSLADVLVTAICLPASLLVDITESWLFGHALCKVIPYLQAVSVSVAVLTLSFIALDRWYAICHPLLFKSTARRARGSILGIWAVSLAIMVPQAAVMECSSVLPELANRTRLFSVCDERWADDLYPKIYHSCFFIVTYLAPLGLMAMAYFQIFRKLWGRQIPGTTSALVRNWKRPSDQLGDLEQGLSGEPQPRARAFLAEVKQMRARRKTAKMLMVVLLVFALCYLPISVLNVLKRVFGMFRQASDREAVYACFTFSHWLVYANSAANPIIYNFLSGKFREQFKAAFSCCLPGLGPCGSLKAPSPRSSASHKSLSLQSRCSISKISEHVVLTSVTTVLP

[8] = biological target: T2, Orexin/Hypocretin receptor type 1; assay: Fluorescence-based cell-based high throughput dose response assay for antagonists of the orexin 1 receptor (OX1R; HCRTR1). [Related pubchem assays (depositor defined):AID434989, AID435008, AID463079, AID485270, AID492963, AID492964, AID492965, AID493232, AID504717, AID504718]; assay type: functional
CHO-K1 = assay: as §1, with “Homogeneous time resolved fluorescence (HTRF)-based” for “Fluorescence-based”, “cell-based” for “cell-based high throughput”, “CHO-K1” for “CHO”; assay type: functional; conditions: Cricetulus griseus;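 also: potency for inhibition of ATP-stimulated IP1 production as antagonists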
Interleukin-8 [9] = biological target: T3, Interleukin-8 (Homo sapiens, UniProt P10145); assay: Dose Response confirmation of uHTS small molecule hits for cystic fibrosis induced NFkb Inhibitors in a TNFa-induced IL8 counterscreen.; assay type: functional; conditions: read-out: IC50_Mean
T3 sequence (P10145 whole entry): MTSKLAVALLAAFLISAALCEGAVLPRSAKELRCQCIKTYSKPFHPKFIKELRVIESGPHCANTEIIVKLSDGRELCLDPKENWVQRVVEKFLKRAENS

HEK293 = assay: inhibitors of LMP1-driven NF-kB reporter, dose response, cell-based, HEK293, luciferase, cherry-pick (AID 588343); assay type: functional; conditions: Homo sapiens
Interleukin-8 [10] = biological target: T3, Interleukin-8; assay: Dose Response confirmation of uHTS small molecule hits for cystic fibrosis induced NFkb Inhibitors in a PAF-induced IL8 counterscreen.; assay type: functional; conditions: read-out: IC50_Mean
[11] = biological target: Mitogen-activated protein kinase 10 (Homo sapiens, UniProt P53779); assay: Dose response biochemical screening assay for inhibitors of c-Jun N-Terminal Kinase 3 (JNK3). [Related pubchem assays: 746 ]
[12] = biological target: Adenosylmethionine-8-amino-7-oxononanoate aminotransferase (Mycobacterium tuberculosis, UniProt P9WQ81); assay: Mycobacterium tuberculosis BioA enzyme inhibitor Measured in Biochemical System Using Plate Reader - 2163-02_Inhibitor_Dose_CherryPick_Activity.; assay type: functional, Mycobacterium tuberculosis UT205
Chain of Adenosylmethionine-8-amino-7-oxononanoate aminotransferase (P9WQ81 whole entry): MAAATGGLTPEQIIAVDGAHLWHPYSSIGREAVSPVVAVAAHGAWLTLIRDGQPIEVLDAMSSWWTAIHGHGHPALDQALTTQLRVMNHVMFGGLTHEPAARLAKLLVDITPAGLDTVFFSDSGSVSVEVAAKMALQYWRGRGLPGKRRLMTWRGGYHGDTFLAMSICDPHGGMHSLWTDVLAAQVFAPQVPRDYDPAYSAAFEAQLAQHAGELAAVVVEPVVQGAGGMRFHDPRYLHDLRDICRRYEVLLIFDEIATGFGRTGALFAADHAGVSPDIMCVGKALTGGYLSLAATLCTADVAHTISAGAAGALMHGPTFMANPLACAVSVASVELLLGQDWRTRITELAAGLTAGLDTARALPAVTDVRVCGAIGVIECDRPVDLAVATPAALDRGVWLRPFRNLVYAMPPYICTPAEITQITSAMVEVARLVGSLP

Chain of Melanocortin receptor 4 (P32245 whole entry, the tested form may be a part): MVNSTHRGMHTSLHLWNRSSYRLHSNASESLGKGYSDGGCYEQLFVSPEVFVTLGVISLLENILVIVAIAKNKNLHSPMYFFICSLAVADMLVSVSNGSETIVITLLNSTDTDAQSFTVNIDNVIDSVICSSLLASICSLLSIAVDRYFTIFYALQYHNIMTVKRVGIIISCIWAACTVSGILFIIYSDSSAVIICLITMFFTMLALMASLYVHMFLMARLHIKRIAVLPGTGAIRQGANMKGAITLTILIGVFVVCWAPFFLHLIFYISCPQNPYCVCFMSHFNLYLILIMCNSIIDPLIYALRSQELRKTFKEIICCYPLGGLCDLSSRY
Chain of Mitogen-activated protein kinase 10 (P53779 whole entry): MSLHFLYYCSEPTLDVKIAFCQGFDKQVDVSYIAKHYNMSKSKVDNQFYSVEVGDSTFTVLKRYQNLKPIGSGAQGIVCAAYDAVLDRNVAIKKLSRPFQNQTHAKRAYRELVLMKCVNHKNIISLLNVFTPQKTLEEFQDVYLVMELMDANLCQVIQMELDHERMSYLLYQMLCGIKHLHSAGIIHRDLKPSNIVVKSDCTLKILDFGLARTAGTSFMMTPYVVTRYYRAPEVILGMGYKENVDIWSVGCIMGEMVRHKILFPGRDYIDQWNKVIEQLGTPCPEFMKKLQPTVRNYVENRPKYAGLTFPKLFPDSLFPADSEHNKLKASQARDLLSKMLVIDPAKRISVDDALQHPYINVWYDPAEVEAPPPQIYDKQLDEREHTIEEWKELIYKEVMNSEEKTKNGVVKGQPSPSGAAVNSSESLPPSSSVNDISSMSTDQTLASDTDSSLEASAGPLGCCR

SMILES	IC50 (Orexin receptor type 2 [3])	IC50 [5]	IC50 (Orexin receptor type 2 [6])	IC50 [7]	IC50 [8]	IC50 (CHO-K1)	AC50 [12]	also measured
Cc1cc2nccc(-c3ccc(Cl)c([N+](=O)[O-])c3)n2n1	–	–	–	–	–	–	–	IC50 [1]: > 64.6 µM (inactive); IC50 (Melanocortin receptor 4): > 64.6 µM (inactive)
O=S(=O)(NC1CC1)c1ccc(S(=O)(=O)N2CCCc3ccccc32)cc1	> 88.8 µM (inactive)	18.2 µM (inactive)	6.62 µM (active)	6.71 µM (active)	6.07 µM (active)	> 66.2 µM (inactive)	–	AC50 [2]: 28.3 µM (active); AC50 [4]: 16.9 µM (active)
CCn1c(=O)c2c(cnn2C)c2ccccc21	–	–	–	–	–	–	–	IC50 (Interleukin-8 [9]): > 79 µM (inactive); AC50 (HEK293): 35.3 µM (active); IC50 (Interleukin-8 [10]): 46.2 µM (inactive)
CCn1c(C)cs/c1=N/C(=O)c1ccccc1O	> 88.8 µM (inactive)	> 49.8 µM (inactive)	> 50 µM (inactive)	2.69 µM (active)	7.37 µM (active)	> 66.3 µM (inactive)	–	IC50 [11]: 40.7 µM (not active)
COc1cc(OC)c(C(=O)Nc2cccnc2)cc1OC	–	–	–	–	–	–	1.81 µM (active)	–
O=C(c1ccc(Br)s1)N1CCN(Cc2ccc3c(c2)OCO3)CC1	–	–	–	–	–	–	1.64 µM (active)	–

— ChEMBL document CHEMBL1201862, “PubChem BioAssay data set” (2004)
